From US12502362B2, “Inhibitors of nucleotidyltransferase superfamily enzymes as antibiotics” (priority 2017, dated 2025)
Like-named read-outs stand apart in the source and are kept apart here.

Legend:
[1] = system: Staphylococcus saprophyticus (ATCC BAA-750); experiment: MIC80 on S. saprophyticus; assay type: cell-based; conditions: S. saprophyticus ATCC BAA-750, read-out: MIC80 S. sapro
[2] = system: Ps. aeruginosa (ATCC 27853); experiment: MIC80 on Ps. aeruginosa; assay type: cell-based; conditions: Pseudomonas aeruginosa, ATCC27853
[3] = system: S. aureus ATCC strains and MRSA; assay type: cell-based, Staphylococcus aureus
Staphylococcus hominis = assay type: cell-based
Procedure: (§1) It was also tested whether compounds #63 and #285 can inhibit other coagulase-negative Staphylococcus (CNS) including S. epidermidis, S. hominis, etc. […].

[4] = system: Staphylococcus epidermidis; assay type: cell-based
Procedure: as §1

E. coli (ATCC 35218) = experiment: microbe, parasite or virus in culture; assay type: cell-based
S. aureus (ATCC 29213) = experiment: MIC80 on S. aureus; assay type: cell-based, Staphylococcus aureus; conditions: ≥80% growth inhibition

## O=C(O)c1cn(C2CC2)c2cc(N3CCNCC3)c(F)cc2c1=O [Compound 67, Ciprofloxacin]
[1]
  MIC80: <2.9 µM
[1]; Staphylococcus saprophyticus, ATCCBAA750
  MIC80: < 2.9 µM
[2]
  MIC80: < 2.9 µM
[3]; S. aureus ATCC 25923
  Antibiotic susceptibility: S
[3]; S. aureus ATCC 29213
  Antibiotic susceptibility: S
[3]; S. aureus ATCC BAA 976
  Antibiotic susceptibility: S
[3]; S. aureus ATCC BAA 977
  Antibiotic susceptibility: S
[3]; S. aureus ATCC BAA 1026
  Antibiotic susceptibility: R
[3]; Sa1 (MRSA)
  Antibiotic susceptibility: R
[3]; Sa2 (MRSA)
  Antibiotic susceptibility: R
[3]; Sa3 (MRSA)
  Antibiotic susceptibility: R
[3]; Sa5 (MRSA)
  Antibiotic susceptibility: R
[3]; Sa6 (MRSA)
  Antibiotic susceptibility: R
[3]; Sa7 (MRSA)
  Antibiotic susceptibility: S
[3]; Sa8 (MRSA)
  Antibiotic susceptibility: R
[3]; Sa9 (MRSA)
  Antibiotic susceptibility: R
[3]; Sa10 (MRSA)
  Antibiotic susceptibility: R
[3]; Sa11 (MRSA)
  Antibiotic susceptibility: R
[3]; Sa12 (MRSA)
  Antibiotic susceptibility: R
[3]; Sa14 (MRSA)
  Antibiotic susceptibility: R
[3]; Sa15 (MRSA)
  Antibiotic susceptibility: R
[3]; Sa16 (MRSA)
  Antibiotic susceptibility: R
[3]; Sa17 (MRSA)
  Antibiotic susceptibility: R
[3]; Sa18 (MRSA)
  Antibiotic susceptibility: R
[3]; Sa19 (MRSA)
  Antibiotic susceptibility: S
[3]; Sa20 (MRSA)
  Antibiotic susceptibility: R
[3]; Sa21 (MRSA)
  Antibiotic susceptibility: S
[3]; Sa22 (MRSA)
  Antibiotic susceptibility: S
[3]; Sa23 (MRSA)
  Antibiotic susceptibility: S
Staphylococcus hominis
  Antibiotic susceptibility: R and S
[4]
  Antibiotic susceptibility: R and S
E. coli (ATCC 35218); E. coli ATCC 35218
  MIC80 E. coli: <2.9 µM
E. coli (ATCC 35218); Escherichia coli, ATCC35218, read-out: MIC80 E. coli, E. coli ATCC 35218
  MIC80: < 2.9 µM
S. aureus (ATCC 29213); S. aureus ATCC 29213 (MSSA)
  MIC80 S. aureus: <2.6 µM
S. aureus (ATCC 29213); Staphylococcus aureus, ATCC 29213 / MSSA, read-out: MIC80 S. aureus, S. aureus ATCC 29213 (MSSA)
  MIC80: < 2.9 µM
